In ChEMBL document CHEMBL4813918, “From off-to on-target: New BRAF-inhibitor-template-derived compounds selectively targeting mitogen activated protein kinase kinase 4 (MKK4)” (Eur J Med Chem, 2021):

Assays:
[1] = molecular target: T1, Dual specificity mitogen-activated protein kinase kinase 7 (Homo sapiens) (UniProt O14733); assay: Binding affinity to wild type full length human MKK7 (M1 to R419 residues) expressed in mammalian expression system assessed as residual activity at 100 nM measured by Kinomescan assay
T1 sequence (whole entry): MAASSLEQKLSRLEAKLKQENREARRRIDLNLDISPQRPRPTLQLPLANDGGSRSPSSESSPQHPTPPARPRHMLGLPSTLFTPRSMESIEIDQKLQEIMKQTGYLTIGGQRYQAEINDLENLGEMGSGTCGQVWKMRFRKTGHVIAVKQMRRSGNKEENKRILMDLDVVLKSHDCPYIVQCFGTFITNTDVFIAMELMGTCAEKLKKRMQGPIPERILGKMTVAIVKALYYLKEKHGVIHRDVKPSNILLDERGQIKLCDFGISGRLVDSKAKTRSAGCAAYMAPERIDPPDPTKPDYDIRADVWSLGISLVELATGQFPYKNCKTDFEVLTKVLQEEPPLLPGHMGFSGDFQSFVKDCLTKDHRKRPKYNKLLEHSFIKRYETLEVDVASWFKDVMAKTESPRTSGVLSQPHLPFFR

[2] = molecular target: Mitogen-activated protein kinase kinase kinase 20 (Homo sapiens) (UniProt Q9NYL2); assay: Binding affinity to wild type partial length human ZAK (M1 to L331) expressed in bacterial expression system assessed as residual activity at 100 nM measured by Kinomescan assay
[3] = molecular target: Mitogen-activated protein kinase kinase kinase kinase 5 (Homo sapiens) (UniProt Q9Y4K4); assay: Binding affinity to wild type partial length human MAP4K5 (M1 to P297) expressed in Bacterial expression system assessed as residual activity at 100 nM measured by Kinomescan assay relative to control
Mitogen-activated protein kinase kinase kinase kinase 5 (Homo sapiens), sequence (Q9Y4K4 whole entry, looked up): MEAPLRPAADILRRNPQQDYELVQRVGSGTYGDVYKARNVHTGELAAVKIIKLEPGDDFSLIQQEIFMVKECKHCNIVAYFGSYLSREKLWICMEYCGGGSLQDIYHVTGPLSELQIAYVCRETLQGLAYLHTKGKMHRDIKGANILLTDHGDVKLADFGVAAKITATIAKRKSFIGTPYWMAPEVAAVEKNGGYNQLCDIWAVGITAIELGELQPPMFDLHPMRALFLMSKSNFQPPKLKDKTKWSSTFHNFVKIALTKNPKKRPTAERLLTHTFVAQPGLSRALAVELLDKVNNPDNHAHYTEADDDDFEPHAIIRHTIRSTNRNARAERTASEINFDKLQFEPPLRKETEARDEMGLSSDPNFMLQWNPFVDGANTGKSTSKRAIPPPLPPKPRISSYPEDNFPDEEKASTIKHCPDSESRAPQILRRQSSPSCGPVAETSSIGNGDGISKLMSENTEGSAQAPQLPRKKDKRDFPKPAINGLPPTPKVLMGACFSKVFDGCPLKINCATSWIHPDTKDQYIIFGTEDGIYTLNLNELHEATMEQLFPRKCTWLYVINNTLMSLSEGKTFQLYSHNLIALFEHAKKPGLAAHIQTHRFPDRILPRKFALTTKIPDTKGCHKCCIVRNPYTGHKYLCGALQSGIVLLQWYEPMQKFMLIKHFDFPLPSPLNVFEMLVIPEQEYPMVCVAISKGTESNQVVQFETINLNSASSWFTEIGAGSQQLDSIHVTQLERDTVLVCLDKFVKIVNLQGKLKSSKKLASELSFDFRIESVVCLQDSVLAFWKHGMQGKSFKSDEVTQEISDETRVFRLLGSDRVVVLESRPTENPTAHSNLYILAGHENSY

Mitogen-activated protein kinase kinase kinase 20 (Homo sapiens), sequence (Q9NYL2 2-800 limits assumed): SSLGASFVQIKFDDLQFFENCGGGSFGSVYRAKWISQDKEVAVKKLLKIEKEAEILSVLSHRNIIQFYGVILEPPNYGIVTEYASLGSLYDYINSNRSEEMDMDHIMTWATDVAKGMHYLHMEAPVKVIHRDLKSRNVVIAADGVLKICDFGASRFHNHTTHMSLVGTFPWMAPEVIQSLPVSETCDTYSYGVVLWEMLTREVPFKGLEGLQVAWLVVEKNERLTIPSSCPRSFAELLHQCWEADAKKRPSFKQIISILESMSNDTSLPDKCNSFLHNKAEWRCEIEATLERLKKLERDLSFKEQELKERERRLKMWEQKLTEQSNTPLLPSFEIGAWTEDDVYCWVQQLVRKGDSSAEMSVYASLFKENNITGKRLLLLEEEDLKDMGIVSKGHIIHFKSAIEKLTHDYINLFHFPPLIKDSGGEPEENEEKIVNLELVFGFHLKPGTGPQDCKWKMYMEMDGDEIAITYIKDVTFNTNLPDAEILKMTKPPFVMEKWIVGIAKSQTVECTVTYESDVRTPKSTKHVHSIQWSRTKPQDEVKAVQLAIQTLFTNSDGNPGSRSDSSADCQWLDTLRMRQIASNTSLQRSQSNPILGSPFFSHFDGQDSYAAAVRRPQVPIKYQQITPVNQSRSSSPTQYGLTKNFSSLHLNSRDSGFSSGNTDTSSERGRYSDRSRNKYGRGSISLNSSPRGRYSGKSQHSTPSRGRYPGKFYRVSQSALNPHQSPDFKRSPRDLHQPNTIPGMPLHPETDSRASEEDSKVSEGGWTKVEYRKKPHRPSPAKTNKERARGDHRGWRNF

| Structure (SMILES) | Activity [1] [%] | Activity [2] [%] | Activity [3] [%] |
| --- | --- | --- | --- |
| O=C(c1c(F)ccc(NS(=O)(=O)Cc2ccc(F)cc2)c1F)c1c[nH]c2ncc(-c3ccc(Cl)cc3)cc12 | 100 | 61 | – |
| CCCS(=O)(=O)Nc1ccc(F)c(C(=O)c2c[nH]c3ncc(-c4ccc(OC)cc4F)cc23)c1F | 85 | 6 | – |
| Oc1ccc(-c2ncnc3[nH]c4ccc(O)cc4c23)cc1 | 100 | 84 | 92 |
| CCCS(=O)(=O)Nc1ccc(F)c(C(=O)c2c[nH]c3ncc(-c4ccc(OC)cc4OC)cc23)c1F | 87 | 1.6 | 84 |
| CCCS(=O)(=O)Nc1cccc(C(=O)c2c[nH]c3ncc(-c4ccc(Cl)cc4)cc23)c1C | 91 | – | 40 |
| CCCS(=O)(=O)Nc1ccc(F)c(C(=O)c2c[nH]c3ncc(-c4cccs4)cc23)c1F | 98 | 2.9 | 48 |
| CCCS(=O)(=O)Nc1ccc(F)c(C(=O)c2c[nH]c3ncc(-c4cc5c(cc4Cl)OCO5)cc23)c1F | 100 | 26 | 99 |
| CCCS(=O)(=O)Nc1ccc(F)c(C(=O)c2c[nH]c3ncc(-c4ccc(OC)cc4C)cc23)c1F | 97 | 13 | – |
| CCCS(=O)(=O)Nc1ccc(F)c(C(=O)c2c[nH]c3ncc(-c4ccc5c(c4)OCO5)cc23)c1F | 90 | 0.45 | 76 |
| CCCS(=O)(=O)Nc1ccc(F)c(C(=O)c2c[nH]c3ncc(-c4cccc(OC)c4)cc23)c1F | 100 | 23 | 18 |
| O=C(c1cccc(NS(=O)(=O)Cc2ccccc2)c1F)c1c[nH]c2ncc(-c3cccnc3)cc12 | 85 | 1.7 | 20 |
| CS(=O)(=O)Nc1ccc(F)c(C(=O)c2c[nH]c3ncc(-c4ccc(Cl)cc4)cc23)c1F | 87 | 2.6 | 63 |
| O=C(c1cccc(NS(=O)(=O)Cc2ccccc2)c1F)c1c[nH]c2ncc(-c3ccc(Cl)cc3)cc12 | 97 | 66 | 72 |
| CCCS(=O)(=O)Nc1ccc(F)c(C(=O)c2c[nH]c3ncc(-c4cccc(Cl)c4)cc23)c1F | 85 | 2.2 | – |
| CCCCS(=O)(=O)Nc1ccc(F)c(C(=O)c2c[nH]c3ncc(-c4ccc(Cl)cc4)cc23)c1F | 100 | 29 | 75 |
| CCCS(=O)(=O)Nc1ccc(F)c(C(=O)c2c[nH]c3ncc(-c4ccccc4OC)cc23)c1F | 100 | 16 | 43 |
| CCCS(=O)(=O)Nc1ccc(F)c(C(=O)c2c[nH]c3ncc(-c4ccc(OC)cc4Cl)cc23)c1F | 100 | 18 | 100 |
| CCCS(=O)(=O)Nc1ccc(F)c(C(=O)c2c[nH]c3ncc(-c4ncccn4)cc23)c1F | 90 | 39 | 92 |
| COc1ccc(-c2cnc3[nH]cc(C(=O)c4cccc(NS(=O)(=O)Cc5ccccc5)c4F)c3c2)c(Cl)c1 | 100 | 87 | 79 |
| CS(=O)(=O)Nc1cccc(C(=O)c2c[nH]c3ncc(-c4ccc(Cl)cc4)cc23)c1F | 81 | 27 | 78 |
| CCCS(=O)(=O)Nc1ccc(F)c(C(=O)c2c[nH]c3ncc(-c4cnccn4)cc23)c1F | 83 | 11 | 75 |
| CCCCCCS(=O)(=O)Nc1ccc(F)c(C(=O)c2c[nH]c3ncc(-c4ccc(Cl)cc4)cc23)c1F | 81 | 73 | 99 |
| O=C(c1cccc(NS(=O)(=O)Cc2ccccc2)c1F)c1c[nH]c2ncc(-c3cc4c(cc3Cl)OCO4)cc12 | 100 | 80 | 66 |
| CCCS(=O)(=O)Nc1ccc(F)c(C(=O)c2c[nH]c3ncc(-c4ccc(OC)cc4)cc23)c1F | 70 | – | 38 |

Continued, values first:

| Activity [1] [%] | Activity [2] [%] | Activity [3] [%] | Structure (SMILES) |
| --- | --- | --- | --- |
| 100 | 30 | 94 | O=C(c1c(F)ccc(NS(=O)(=O)Cc2ccccc2)c1F)c1c[nH]c2ncc(-c3ccc(Cl)cc3)cc12 |
| 75 | 58 | 100 | COCCS(=O)(=O)Nc1ccc(F)c(C(=O)c2c[nH]c3ncc(-c4ccc(Cl)cc4)cc23)c1F |
| 86 | 2.9 | – | CCCS(=O)(=O)Nc1ccc(F)c(C(=O)c2c[nH]c3ncc(-c4ccccc4F)cc23)c1F |
| 84 | 8.9 | 86 | CCCS(=O)(=O)Nc1ccc(F)c(C(=O)c2c[nH]c3ncc(-c4cnc(OC)nc4)cc23)c1F |
| 97 | 20 | 98 | CCCS(=O)(=O)Nc1ccc(F)c(C(=O)c2c[nH]c3ncc(-c4cc5c(cc4Cl)OCCO5)cc23)c1F |
| 100 | 64 | – | Cc1cccc(CS(=O)(=O)Nc2ccc(F)c(C(=O)c3c[nH]c4ncc(-c5ccc(Cl)cc5)cc34)c2F)c1 |
| 100 | 2.2 | 84 | CCCS(=O)(=O)Nc1ccc(F)c(C(=O)c2c[nH]c3ncc(-c4ccc5c(c4)OCCO5)cc23)c1F |
| 89 | 8.3 | 82 | CCS(=O)(=O)Nc1ccc(F)c(C(=O)c2c[nH]c3ncc(-c4ccc(Cl)cc4)cc23)c1F |
| 90 | 0.8 | 45 | CCCS(=O)(=O)Nc1ccc(F)c(C(=O)c2c[nH]c3ncc(-c4cccc(F)c4)cc23)c1F |
| 97 | 53 | 100 | O=C(c1c(F)ccc(NS(=O)(=O)CCc2ccccc2)c1F)c1c[nH]c2ncc(-c3ccc(Cl)cc3)cc12 |
| 97 | 23 | – | O=C(c1c(F)ccc(NS(=O)(=O)Cc2ccccc2F)c1F)c1c[nH]c2ncc(-c3ccc(Cl)cc3)cc12 |
| 100 | 14 | 100 | CCCS(=O)(=O)Nc1ccc(F)c(C(=O)c2c[nH]c3ncc(-c4ccc(F)cc4C)cc23)c1F |
| 100 | 19 | 100 | CCCS(=O)(=O)Nc1ccc(F)c(C(=O)c2c[nH]c3ncc(-c4ccc(F)cc4Cl)cc23)c1F |
| 100 | 0.5 | 29 | CCCS(=O)(=O)Nc1ccc(F)c(C(=O)c2c[nH]c3ncc(-c4ccccc4)cc23)c1F |
| 100 | 81 | 95 | Cc1nc(NC(C)CO)c2c(n1)[nH]c1ccc(O)cc12 (centres undefined) |
| 100 | 3.5 | 54 | O=C(c1c(F)ccc(NS(=O)(=O)CCC(F)(F)F)c1F)c1c[nH]c2ncc(-c3ccc(Cl)cc3)cc12 |
| 93 | 5.9 | – | CCCS(=O)(=O)Nc1ccc(F)c(C(=O)c2c[nH]c3ncc(-c4ccc(F)cc4F)cc23)c1F |
| 99 | 36 | – | O=C(c1c(F)ccc(NS(=O)(=O)Cc2cccc(F)c2)c1F)c1c[nH]c2ncc(-c3ccc(Cl)cc3)cc12 |
| 100 | – | 44 | CCCS(=O)(=O)Nc1cccc(C(=O)c2c[nH]c3ncc(-c4ccc(Cl)cc4)cc23)c1 |
| 90 | 87 | – | Cc1ccc(CS(=O)(=O)Nc2ccc(F)c(C(=O)c3c[nH]c4ncc(-c5ccc(Cl)cc5)cc34)c2F)cc1 |
